Reference: patent US20070249670A1, “Glycogen Phosphorylase Inhibitor Compounds and Pharmaceutical Compositions Thereof” (SMITHKLINE BEECHAM CORPORATION, priority 2004, published 2007)

Biological target: T1, human liver glycogen phosphorylase a (HLGPa) (Homo sapiens, UniProt P06737)
T1 construct: creating a full-length cDNA fused at the 5′ end to codons for methionine-glycine-alanine-histidine; 6xHis tag (leader Met-Gly-Ala-His6-Gly-Gly) (N); made in house; host or cells: E. coli (bacterial expression plasmid pTXK1007LTev)
T1 sequence (P06737 2-847 limits assumed): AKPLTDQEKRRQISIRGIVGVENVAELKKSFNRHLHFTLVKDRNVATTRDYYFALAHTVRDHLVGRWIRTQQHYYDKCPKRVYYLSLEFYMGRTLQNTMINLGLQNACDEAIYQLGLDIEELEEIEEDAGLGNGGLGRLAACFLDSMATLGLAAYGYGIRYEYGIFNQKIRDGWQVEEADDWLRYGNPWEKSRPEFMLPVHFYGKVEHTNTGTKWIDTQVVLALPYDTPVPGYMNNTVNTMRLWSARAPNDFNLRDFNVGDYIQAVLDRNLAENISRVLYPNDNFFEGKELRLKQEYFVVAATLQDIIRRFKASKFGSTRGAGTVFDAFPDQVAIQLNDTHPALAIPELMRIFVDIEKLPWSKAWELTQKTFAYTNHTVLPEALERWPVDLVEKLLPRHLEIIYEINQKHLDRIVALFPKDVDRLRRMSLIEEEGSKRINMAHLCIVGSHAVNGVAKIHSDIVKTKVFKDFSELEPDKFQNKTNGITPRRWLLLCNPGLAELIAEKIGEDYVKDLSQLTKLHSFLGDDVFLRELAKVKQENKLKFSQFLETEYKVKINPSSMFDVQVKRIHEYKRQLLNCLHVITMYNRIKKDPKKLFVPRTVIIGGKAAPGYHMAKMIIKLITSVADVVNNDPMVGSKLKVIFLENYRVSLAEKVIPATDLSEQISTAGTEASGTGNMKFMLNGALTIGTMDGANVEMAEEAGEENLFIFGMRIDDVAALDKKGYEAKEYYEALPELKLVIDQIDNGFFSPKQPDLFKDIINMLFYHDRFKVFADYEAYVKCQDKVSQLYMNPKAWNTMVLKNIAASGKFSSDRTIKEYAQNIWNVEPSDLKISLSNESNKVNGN
Assay: Human liver glycogen phosphorylase a enzymatic activity assay (coupled, fluorescent resorufin readout, with and without 10 mM glucose)
Assay type: biochemical
Settings: human liver glycogen phosphorylase a enzymatic activity assay

| Compound | IC50 [µM] |
| --- | --- |
| Cc1cccc(Cl)c1NC(=O)Nc1sc2c(c1C(=O)N[C@H](C(=O)O)C1CCCCC1)CCCC2 [Example 139, (2S)-({[2-({[(2-chloro-6-methylphenyl)amino]carbonyl}amino)-4,5,6,7-tetrahydro-1-benzothien-3-yl]carbonyl}amino)(cyclohexyl)acetic acid] | 3.26 |
| O=C(Nc1sc2c(c1C(=O)N[C@H](C(=O)O)C1CCCCC1)CCCC2)Nc1c(Cl)cccc1Cl [Example 140, (2S)-cyclohexyl({[2-({[(2,6-dichlorophenyl)amino]carbonyl}amino)-4,5,6,7-tetrahydro-1-benzothien-3-yl]carbonyl}amino)acetic acid] | 5.5 |
| Cc1ccccc1NC(=O)Nc1sc2ccccc2c1C(=O)N[C@H](C(=O)O)C1CCCCC1 [Example 141, (2S)-cyclohexyl({[2-({[(2-methylphenyl)amino]carbonyl}amino)-1-benzothien-3-yl]carbonyl}amino)acetic acid] | 8.71 |
| Cc1cccc(Cl)c1NC(=O)Nc1sc2ccccc2c1C(=O)N[C@H](C(=O)O)C1CCCCC1 [Example 142, (2S)-({[2-({[(2-chloro-6-methylphenyl)amino]carbonyl}amino)-1-benzothien-3-yl]carbonyl}amino)(cyclohexyl)acetic acid] | 1.51 |
| Cc1ccccc1NC(=O)Nc1cc2ccccc2cc1C(=O)N[C@H](C(=O)O)C1CCCCC1 [Example 143, (2S)-cyclohexyl{[3-({[(2-methylphenyl)amino]carbonyl}amino)-2-naphthoyl]amino}acetic acid] | 30.3 |
| Cc1ccccc1NC(=O)Nc1cc2ccccc2cc1C(=O)N[C@@H](CC1CCCCC1)C(=O)O [Example 144, 3-cyclohexyl-N-{[3-({[(2-methylphenyl)amino]carbonyl}amino)-2-naphthalenyl]carbonyl}-L-alanine] | 16.8 |
| Cc1cccc(C)c1NC(=O)Nc1cc2ccccc2cc1C(=O)N[C@@H](CC1CCCCC1)C(=O)O [Example 145, 3-cyclohexyl-N-{[3-({[(2,6-dimethylphenyl)amino]carbonyl}amino)-2-naphthalenyl]carbonyl}-L-alanine] | 0.59 |
| O=C(Nc1cc2ccccc2cc1C(=O)N[C@@H](CC1CCCCC1)C(=O)O)Nc1c(Cl)cccc1Cl [Example 146, 3-cyclohexyl-N-{[3-({[(2,6-dichlorophenyl)amino]carbonyl}amino)-2-naphthalenyl]carbonyl}-L-alanine] | 0.54 |
| Cc1noc(C)c1NC(=O)Nc1cc2ccccc2cc1C(=O)N[C@@H](CC(=O)O)C(=O)O [Example 147, N-{[3-({[(3,5-dimethyl-4-isoxazolyl)amino]carbonyl}amino)-2-naphthalenyl]carbonyl}-L-aspartic acid] | 29.1 |
| O=C(O)C[C@H](NC(=O)c1cc2ccccc2cc1NC(=O)Nc1c(Cl)cccc1Cl)C(=O)O [Example 148, N-{[3-({[(2,6-dichlorophenyl)amino]carbonyl}amino)-2-naphthalenyl]carbonyl}-L-aspartic acid] | 0.23 |
| O=C(O)C[C@H](NC(=O)c1cc2ccccc2cc1NC(=O)Nc1c(F)cccc1F)C(=O)O [Example 149, N-{[3-({[(2,6-difluorophenyl)amino]carbonyl}amino)-2-naphthalenyl]carbonyl}-L-aspartic acid] | 5.02 |
| O=C(O)C[C@H](NC(=O)c1cc2ccccc2cc1NC(=O)Nc1ccccc1Cl)C(=O)O [Example 151, N-{[3-({[(2-chlorophenyl)amino]carbonyl}amino)-2-naphthalenyl]carbonyl}-L-aspartic acid] | 1.55 |
| O=C(Nc1cc2ccccc2cc1C(=O)N[C@H](C(=O)O)C1CCCCC1)Nc1c(F)cccc1F [Example 153, (2S)-cyclohexyl({[3-({[(2,6-difluorophenyl)amino]carbonyl}amino)-2-naphthalenyl]carbonyl}amino)ethanoic acid] | 4.85 |
| O=C(Cc1c(Cl)cccc1Cl)Nc1cc2ccccc2cc1C(=O)N[C@H](C(=O)O)C1CCCCC1 [Example 155, (2S)-cyclohexyl{[(3-{[(2,6-dichlorophenyl)acetyl]amino}-2-naphthalenyl)carbonyl]amino}ethanoic acid] | 6.8 |
| O=C(Nc1cc(Cl)ccc1C(=O)N[C@H](C(=O)O)C1CCCCC1)Nc1c(Cl)cccc1Cl [Example 156, (2S)({[4chloro2({[(2,6dichlorophenyl)amino]carbonyl}amino)phenyl]carbonyl}amino)(cyclohexyl)ethanoic acid] | 0.082 |
| Cc1cccc(C)c1NC(=O)Nc1cc(Cl)ccc1C(=O)N[C@H](C(=O)O)C1CCCCC1 [Example 157, (2S)-({[4-chloro-2-({[(2,6-dimethylphenyl)amino]carbonyl}amino)phenyl]carbonyl}amino)(cyclohexyl)ethanoic acid] | 0.242 |

| Compound | IC50 [µM] |
| --- | --- |
| CCc1cccc(C)c1NC(=O)Nc1cc2ccccc2cc1C(=O)N[C@H](C(=O)O)C1CCCCC1 [Example 159, (2S)-cyclohexyl{[3-({[(2-ethyl-6-methylphenyl)amino]carbonyl}amino)-2-naphthoyl]amino}ethanoic acid] | 0.058 |
| O=C(Nc1cc2ccccc2cc1C(=O)N[C@H](C(=O)O)C1CCCCC1)Nc1c(Cl)cccc1C(F)(F)F [Example 160, (2S)-({3-[({[2-chloro-6-(trifluoromethyl)phenyl]amino}carbonyl)amino]-2-naphthoyl}amino)(cyclohexyl)ethanoic acid] | 0.068 |
| O=C(Cc1c(Cl)cc(C(F)(F)F)cc1Cl)Nc1cc2ccccc2cc1C(=O)N[C@H](C(=O)O)C1CCCCC1 [Example 161, (2S)-cyclohexyl{[3-({[2,6-dichloro-4-(trifluoromethyl)phenyl]acetyl}amino)-2-naphthoyl]amino}ethanoic acid] | 0.11 |
| O=C(Cc1c(Cl)cc(Cl)cc1Cl)Nc1cc2ccccc2cc1C(=O)N[C@H](C(=O)O)C1CCCCC1 [Example 162, (2S)-cyclohexyl[(3-{[(2,4,6-trichlorophenyl)acetyl]amino}-2-naphthoyl)amino]ethanoic acid] | 0.046 |
| Cc1cccc(C)c1NC(=O)Nc1cc2ccccc2cc1C(=O)NCCC(=O)O [Example 163, N-[3-({[(2,6-dimethylphenyl)amino]carbonyl}amino)-2-naphthoyl]-beta-alanine] | 0.509 |
| O=C(Nc1cc(Cl)ccc1C(=O)O)Nc1c(Cl)cccc1Cl [Example 165, 4-Chloro-2-({[(2,6-dichlorophenyl)amino]carbonyl}amino)benzoic acid] | 15.1 |
| Cc1cccc(C)c1NC(=O)Nc1cc(Cl)ccc1C(=O)O [Example 166] | 8.64 |
| Cc1cccc(C)c1NC(=O)Nc1cc(Cl)ccc1C(=O)N[C@H](C(=O)O)C1CCCCC1 [Example 167, (2S)-({[4-Chloro-2-({[(2,6-dimethylphenyl)amino]carbonyl}amino)phenyl]carbonyl}amino)(cyclohexyl)-ethanoic acid] | 0.39 |
| O=C(Nc1cc(Cl)ccc1C(=O)N[C@H](C(=O)O)C1CCCCC1)Nc1c(Cl)cccc1Cl [Example 168, (2S)-({[4-Chloro-2-({[(2,6-dichlorophenyl)amino]carbonyl}amino)phenyl]carbonyl}amino)(cyclohexyl)-ethanoic acid] | 0.2 |
| Cc1ccc(NC(=O)Nc2c(C)cccc2C)c(C(=O)N[C@H](C(=O)O)C2CCCCC2)c1 [Example 169, (2S)Cyclohexyl({[2({[(2,6dimethylphenyl)amino]carbonyl}amino)-5-methylphenyl]carbonyl}amino)ethanoic acid] | 0.68 |
| Cc1cccc(C)c1NC(=O)Nc1cc(Cl)ccc1C(=O)NCC(=O)O [Example 170, N{[4chloro2({[(2,6dimethylphenyl)amino]carbonyl}amino)phenyl]carbonyl}glycine] | 2.91 |
| O=C(Nc1cc(Cl)ccc1C(=O)N[C@H](C(=O)O)C1CCCCC1)Nc1c(Cl)cc(Cl)cc1Cl [Example 171, (2S)-({[4-Chloro-2-({[(2,4,6-trichlorophenyl)amino]carbonyl}amino)phenyl]carbonyl}amino)(cyclohexyl)-ethanoic acid] | 0.33 |
| Cc1cccc(Cl)c1NC(=O)Nc1cc(Cl)ccc1C(=O)N[C@H](C(=O)O)C1CCCCC1 [Example 172, (2S)-({[4-Chloro-2-({[(2-chloro-6-methylphenyl)amino]carbonyl}-amino)phenyl]carbonyl}amino)(cyclohexyl)ethanoic acid] | 0.18 |
| Cc1cccc(C)c1NC(=O)Nc1cc(Br)ccc1C(=O)N[C@H](C(=O)O)C1CCCCC1 [Example 173, (2S)-({[4-Bromo-2-({[(2,6-dimethylphenyl)amino]carbonyl}amino)phenyl]carbonyl}amino)(cyclohexyl)-ethanoic acid] | 0.31 |
| Cc1cccc(C)c1NC(=O)Nc1cc(Cl)ccc1C(=O)N[C@@H](CC(=O)O)C(=O)O [Example 174, N-{[4-Chloro-2-({[(2,6-dimethylphenyl)amino]carbonyl}amino)phenyl]carbonyl}-L-aspartic acid] | 0.77 |
